{"source": "paper PMC9112550", "about": "“Optimization of the antimicrobial peptide Bac7 by deep mutational scanning” (BMC Biology, 2022)", "origin": "cited, not measured here", "tested_on": "Salmonella typhimurium", "settings": "30 mg kg^−1, mice infected with Salmonella typhimurium intraperitoneally", "excerpt": "Lastly, it is hard to judge if the activity increase of Bac7PS compared to Bac7_1-23 measured in vitro can be translated to in vivo experiments. […] In our study, all untreated mice already ...", "data": [{"substance": "Bac7_1-35: Bac7_1-35 (35 amino acid long) (RRIRPRPPRLPRPRPRPLPFPRPGPRPIPRPLPFP; Bactenecin-7; UniProt P19661 131-165, looked up, fragment)", "values": [{"measurement": "efficacy", "value": 36, "unit": "%"}, {"measurement": "mean survival", "setting": "untreated control 10 days", "value": 24.5, "unit": "days"}]}]}
